Columns and labels:
[1] = system: human monocyte cell line THP-1; assay: Flow cytometry binding of Cy5-labeled aptamers to human monocyte cell line THP-1; conditions: THP-1 cells, 200 nM Cy5-aptamer, 4° C., 30 minutes (FIG. 3)
Experimental: (§1) To confirm that J10 binding, but not S2 binding, was selective to human monocytes in vitro, Cy5-labeled J10 and S2 were also incubated with the human monocyte cell lines, THP-1 and U937, and human umbilical cord endothelial cells (HUVEC), which were used as a negative control. In brief, 5×10^5 of each selected cell line was pre-mixed in a bloc king buffer (20% FBS and 10% salmon sperm DNA in PBS) at 4° C. for 30 minutes. After that, the cells were reacted with 200 nM Cy5-J10 or Cy5-S2 in the blocking buffer at 4° C. for 30 minutes. Finally, the sample was subjected to flow cytometry using standard protocols known in the art.

[2] = system: circulating myeloid cells (CD45+ CD11b+ cells); assay: Ex vivo binding of Cy5-aptamer to peripheral blood cells by flow cytometry; parameters: species or system mouse; conditions: peripheral blood of healthy mice, 2 μM Cy5-Apt, 30 minutes at 4° C. (FIG. 2D)
Experimental: To test ex vivo binding specificity and affinity, 100 μL peripheral blood from healthy mice was withdrawn via the submandibular vein, collected in EDTA-containing anticoagulant tubes (BD Vacutainer), and incubated with 2 mL ACK lysing buffer for 10 minutes to lyse the red blood cells. After that, 2% FBS in PBS was added to stop the reaction. Following centrifugation (300 g for 3 minutes at 4° C.) the supernatants were removed. One million cells were blocked by CD16/CD32 Fc blocking antibody (1:100) after incubation for 20 minutes. Then the cells were stained for CD45 (PE-Cy7; 1:100 Biolegend), CD11b (PE; 1:200 Biolegend) and 2 μM Cy5-Apt for 30 minutes at 4° C. Finally, the cells were washed by 2% FBS in PBS and subjected to flow cytometry using standard protocols known in the art.

[3] = system: mouse endothelial cell line SVEC; assay: Flow cytometry binding of Cy5-labeled aptamers to endothelial cell line SVEC (negative selection); conditions: 200 nM Cy5-aptamer, 4° C., 30 minutes, flow cytometry (FIG. 2A)
Experimental: (§2) To confirm that J10, but not S2, was capable of binding selectively to monocytes in vitro, the J10 and S2 aptamers were first labeled with the fluorescent labeling reagent Cy5 ((2Z)-2-[(2E,4E)-5-[1-(5-Carboxypentyl)-3,3-dimethyl-5-sulfoindol-1-ium-2-yl]penta-2,4-dienylidene]-1-ethyl-3,3-dimethylindole-5-sulfonate) and then incubated with monocyte cells lines RAW264.7 and J774A.1. Cy5-labeled J10 and S2 were also incubated with the mouse endothelial cell line SVEC which was used as a negative selection. In brief, 5×10^5 of each selected cell line was pre-mixed in a bloc king buffer (20% FBS and 10% salmon sperm DNA in PBS) at 4° C. for 30 minutes. After that, the cells were reacted with 200 nM Cy5-J10 or Cy5-S2 in the blocking buffer at 4° C. for 30 minutes. Finally, the sample was subjected to flow cytometry using standard protocols known in the art. […] Together, the data in FIGS. 2A and 2B confirmed that J10, but not S2, was capable of binding selectively to monocytes in vitro and being carried to the injured site in vivo.

[4] = PCR analysis of aptamer targeting to the injured site in the mouse cardiac ischemia reperfusion (I/R) model; type: in vivo; conditions: intravenous injection, mouse cardiac I/R model (FIG. 2B)
Text: FIGS. 2A-2D include diagrams depicting the specificity of J10 aptamer to monocytes. FIG. 2A: depicts a graph showing the amount of Cy5-labeled J10 aptamer and Cy5-labeled S2 aptamer in the monocyte cells lines RAW264.7 and J774A.1 and the mouse endothelial cell line SVEC as measured by flow cytometry. Mouse endothelial cell line SVEC was used as a negative selection. The S2 aptamer had the same nucleotide composition as J10 aptamer but randomized the sequence. Two-way ANOVA with a Tukey adjustment was used to analyze the data where *P<0.05; **P<0.01; ***P<0.001 were significant. FIG. 2B: Top panel depicts images showing the accumulating amount of J10 and S2 aptamers in infarct area of the injured hearts as measured by PCR. Bottom panel depicts quantification of PCR results. Unpaired Student's t-test was used to analyze the data where *P<0.05; **P<0.01; ***P<0.001 were significant. FIG. 2C: depicts images showing in vivo targeting of in vivo targeting of S2 aptamer-QD655 (top panel) J10 aptamer-QD655 (bottom panel) to circulating CX3CR1-GFP^+ monocytes via intravital imaging. The aptamer was conjugated with quantum dots QD655. Scale bars shown represent 100 μm. FIG. 2D: depicts a graph showing ex vivo targeting of J10 aptamer against circulating monocytes examined with flow cytometry to analyse the amount of Cy5-J10 associated with CD45^+ and CD11b^+ cells isolated from peripheral blood. […]

[5] = system: RAW264.7 (murine monocyte cell line); assay: Flow cytometry binding of Cy5-labeled aptamers to monocyte cell line RAW264.7; parameters: species or system mouse; conditions: RAW264.7 cells, 200 nM Cy5-aptamer, 4° C., 30 minutes, flow cytometry (FIG. 2A)
Experimental: as §2

[6] = system: human monocyte cell line U937; assay: Flow cytometry binding of Cy5-labeled aptamers to human monocyte cell line U937; conditions: U937 cells, 200 nM Cy5-aptamer, 4° C., 30 minutes (FIG. 3)
Experimental: as §1

[7] = system: J774A.1 (murine monocyte cell line); assay: Flow cytometry binding of Cy5-labeled aptamers to monocyte cell line J774A.1; parameters: species or system mouse; conditions: J774A.1 cells, 200 nM Cy5-aptamer, 4° C., 30 minutes, flow cytometry (FIG. 2A)
Experimental: as §2

## J10: monocyte-targeting DNA aptamer identified by cell-SELEX; sequence in Table 1; Cy5-labeled for flow cytometry (DNA CAATAGAGTCGTACAGGTCGACGCT; Cy5-labeled DNA aptamer, label position not given here) [Aptamer J10]
[1]
  binding affinity (flow cytometry): high binding affinity
[2]
  ex vivo affinity to CD45+ CD11b+ cells: high affinity
[3]
  detection of Cy5-labeled aptamer in endothelial cells: no detection
[4]
  in vivo targeting to the injured site (PCR): confirmed in vivo targeting ability
[5]
  percentage of Cy5-labeled monocytes: significantly higher than the percentage of Cy5-labeled S2 monocytes
[6]
  binding affinity (flow cytometry): high binding affinity
[7]
  percentage of Cy5-labeled monocytes: significantly higher than the percentage of Cy5-labeled S2 monocytes

From US12516331B2, “Monocyte-specific aptamers and uses thereof for enhancing drug delivery to cancer” (Academia Sinica, priority 2020, dated 2026)
